The target of one test is B*3501 (Homo sapiens, UniProt P01889, A329T/A93T/A95T/C349S/D201E/D98Y/E176V/E187L/E204Q/E69T/I218V/K202T/L119I/Q94N/R155S/R180L/S121R/S35A/S48A/T118I/V127L/V306I/V36M/Y140S/Y91F). In words: HLA class I peptide binding assay, B*3501.
The target of the next test is B*5301 (Homo sapiens, UniProt P01889, A329T/A93T/A95T/C349S/D201E/D98Y/E176V/E187L/E204Q/E69T/G107R/I218V/K202T/L105A/L119I/N104I/Q94N/R106L/R155S/R180L/S101N/S121R/S35A/S48A/T118I/V127L/V306I/V36M/Y140S/Y91F). In words: HLA class I peptide binding assay, B*5301.
The next test deals with B*5401 (Homo sapiens, UniProt P01889, A329T/C349S/D138N/D201E/E176V/E187T/E204Q/E69G/I76V/K202T/L119W/R155S/R180L/S121T/S35A/S48A/V127L/V306I/V36M/Y140L). In words: biochemical. The class given is binding.
A further test addresses B*0702 (Homo sapiens, UniProt P01889). In words: biochemical. It counts as binding.
The subject of another test is T helper lymphocytes. Conditions: individuals regardless of HLA type; cited from earlier work.

No end group written: not given here.

A word on the IC50: it is the concentration needed to halve the response being measured. Take FPFCLAFSY [Peptide 2511]: the results for the IC50 on B*3501, on B*5301 and on B*5401 were 6.5 nM, 4.8 nM and 5.1 nM, respectively.
Consider FPHCLAFAL [Peptide 2509], for which the IC50 at B*5301 is 5 nM; against B*0702 it was 25 nM; at B*5401, 24 nM.
With FPHCLAFSA [Peptide 2513], the IC50 on B*3501 was 6.5 nM; at B*5301, 137 nM; against B*0702, 3670 nM; on B*5401, 0.6 nM.
Turning to FPHCLAFSI [Peptide 2512], the IC50 at B*5301 is 3.8 nM; on B*0702, 675 nM; on B*5401, 1 nM.
As to FPHCLAFSL [Peptide 2510], the figures for the IC50 at B*5301 and against B*0702 were 15 nM and 74 nM, respectively.
For FPIPSSWAF [Peptide 2506], the midpoint of inhibition against B*0702, the IC50, lay at 24 nM.
For aKXVWANTLKAAa, the “stimulation of T helper lymphocyte response” value with T helper lymphocytes is “stimulate the response of T helper lymphocytes from most individuals”.

The values are drawn from patent publication US7611713B2 (priority 1999, dated 2009).
